31 compounds from US12187727B2, “Methods for antagonizing a melanocortin 4 receptor” (Pfizer Inc., priority 2020, dated 2025) can be followed below.

The first experiment deals with human Melanocortin-4 receptor (MC4R) (Homo sapiens (Human), UniProt P32245). Put plainly: Functional in vitro MC4R antagonist potency assay (cAMP HTRF in CHO cells). In kind it is cell-based.
Sequence of human Melanocortin-4 receptor (MC4R) (P32245 whole entry): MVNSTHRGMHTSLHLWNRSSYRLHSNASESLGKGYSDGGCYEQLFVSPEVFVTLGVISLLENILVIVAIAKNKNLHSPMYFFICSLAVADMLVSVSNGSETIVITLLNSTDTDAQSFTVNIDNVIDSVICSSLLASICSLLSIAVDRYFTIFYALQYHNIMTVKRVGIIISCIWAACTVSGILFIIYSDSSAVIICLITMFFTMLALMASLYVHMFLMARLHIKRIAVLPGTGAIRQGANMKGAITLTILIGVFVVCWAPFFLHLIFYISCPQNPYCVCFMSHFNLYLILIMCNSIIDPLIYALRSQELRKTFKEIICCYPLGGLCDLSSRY
Conditions: not given
As for the experimental part: Example BB. Functional In Vitro MC4R Antagonist Potency Assay
The functional in vitro antagonist potency for test compounds was determined by monitoring intracellular cyclic adenosine monophosphate (cAMP) levels in Chinese hamster ovary (CHO—) cells stably expressing the human Melanocortin-4 receptor (MC4R). Following agonist activation, human MC4R associates with the G-protein complex causing the Gα subunit to exchange bound GDP for GTP, followed by dissociation of the Ga-GTP complex. The activated Gα subunit can couple to downstream effectors to regulate the levels of second messengers or cAMP within the cell. Thereby, determination of intracellular cAMP levels allows for pharmacological characterization. Intracellular cAMP levels are quantitated using a homogenous assay utilizing the Homogeneous Time-Resolved Fluorescence (HTRF) technology from CisBio. The method is a competitive immunoassay between native cAMP produced by cells and the cAMP labelled with the acceptor dye, d2. The two entities then compete for binding to a monoclonal anti-cAMP antibody labeled with cryptate. The specific signal is inversely proportional to the concentration of cAMP in the cells.
Test compounds were solubilized to 30 mM in 100% dimethyl sulfoxide (DMSO) and stored. […] The final compound concentration range in the assay was 400 nM to […], with a final DMSO concentration of 0.1%.
(95% O2: 5% CO2) overnight, with micro-clime lids (Labcyte, Cat No. LLS-0310). […] Cells were incubated with compound for 30 minutes at 37° C. (95% O2: 5% CO2) before addition of 5 μL EC80, agonist stimulation (200 nM α-melanocyte stimulating hormone, aMSH, Bachem) and another 30-minute incubation at 37° C. (95% O2: 5% CO2). Intracellular cAMP levels were quantified as per Cisbio's protocol (5 uL of D2 and then 5 uL Cryptate, incubated for 1-2 hours at room temperature).
Data expressed as nM cAMP were then normalized to control wells using Activity Base (IDBS). Zero percent effect (ZPE) was defined as nM of cAMP generated from ECK, agonist stimulation (200 nM aMSH). In the absence of an antagonist control compound, one hundred percent effect (HPE) was defined as nM of cAMP generated from assay buffer/vehicle only.
(In general: TR-FRET usually uses a lanthanide donor and a delayed reading to cut background.)
Broadly, the Kb is the equilibrium dissociation constant of an antagonist, usually derived from a functional assay. As for `COc1cc([C@@H](C)C(=O)N2CC[C@@]3(CCc4cc(-c5nnn(C)n5)c(C)nc4N3)C2)c(F)cn1` [Example 13, (2R)-2-(5-Fluoro-2-methoxypyridin-4-yl)-1-[(2S)-7-methyl-6-(2-methyl-2H-tetrazol-5-yl)-3,4-dihydro-1H-spiro[1,8-naphthyridine-2,3′-pyrrolidin]-1′-yl]propan-1-one], the Kb is 0.16 nM.
`[2H]c1cc([2H])nc(-c2cc3c(nc2C)N[C@@]2(CC3)CCN(C(=O)[C@H](C)c3cc(OC)ncc3F)C2)n1` [Example 18, (2R)-2-(5-Fluoro-2-methoxypyridin-4-yl)-1-{(2S)-7-methyl-6-[(4,6-^2H2)pyrimidin-2-yl]-3,4-dihydro-1H-spiro[1,8-naphthyridine-2,3′-pyrrolidin]-1′-yl}propan-1-one]: the Kb came to 0.55 nM.

Staying with this experiment, now noted: human MC4R in CHO cells, cAMP HTRF, 200 nM aMSH challenge; Kb from IC50 by Leff-Dougall equation; geometric mean; read-out: Kb (nM) Antagonist geometric.
`COc1cc([C@@H](C)C(=O)N2CC[C@@]3(CCc4cc(Cl)c(C)nc4N3)C2)c(F)cn1` (single isomer, unassigned) [Example 102]: the Kb is > 92 nM.
Still for that read-out and setting: the value for `COc1cc([C@@H](C)C(=O)N2CC[C@@]3(CCc4cc(-c5cnn(C)c5)c(C)nc4N3)C2)c(Cl)cn1` (single isomer, unassigned) [Example 104] was 0.06 nM.
Consider `Cc1nc2c(cc1-c1nnn(C)n1)CC[C@@]1(CCN(C(=O)[C@H](C)c3ccc(C(F)(F)F)cc3)C1)N2` (single isomer, unassigned) [Example 109], for which the Kb is 5.8 nM.
On the same count and under the same terms, then `COc1cc([C@@H](C)C(=O)N2CCC3(CCc4cc(-c5nc(OC)n(C)n5)c(C)nc4N3)C2)c(F)cn1` (single isomer, unassigned) [Example 112], with 2 nM; and `COc1cc(C(C)C(=O)N2CC[C@@]3(CCc4cc(-c5nc(C(F)F)n(C)n5)c(C)nc4N3)C2)nc(C)n1` (single isomer, unassigned) [Example 123], with 0.5 nM; and `COc1cc(C(C)C(=O)N2CC[C@@]3(CCc4cc(-c5nnn(C)n5)c(C)nc4N3)C2)ccn1` (single isomer, unassigned) [Example 125], with 5.1 nM.
On the same count and under the same terms, the value for `COc1cc(C(C)C(=O)N2CC[C@@]3(CCc4cc(-c5nnn(C)n5)c(C)nc4N3)C2)nc(C(F)F)n1` (single isomer, unassigned) [Example 127] was 1.1 nM.
In the case of `COc1ncc(F)c(C(C)C(=O)N2CC[C@@]3(CCc4cc(-c5nnn(C)n5)c(C)nc4N3)C2)n1` (single isomer, unassigned) [Example 134], the Kb is > 97 nM.
The same measure, in the same setting: then `COc1cc(C(C)C(=O)N2CC[C@@]3(CCc4cc(-c5ncccn5)c(C)nc4N3)C2)c(C)cn1` (single isomer, unassigned) [Example 136], with 0.16 nM; and `COc1cc([C@](C)(F)C(=O)N2CC[C@@]3(CCc4cc(-c5ncccn5)c(C)nc4N3)C2)c(F)cn1` (single isomer, unassigned) [Example 148], with 19 nM.
For `Cc1nc2c(cc1-c1ncccn1)CC[C@@]1(CCN(C(=O)[C@H](C)c3ccc(F)cc3F)C1)N2` (single isomer, unassigned) [Example 190], the Kb was 5.9 nM.

The same experiment, now with this note: read-out: Kb (nM) Antagonist geometric mean.
For `COc1cc([C@@H](C)C(=O)N2CCC3(CCc4cc(-c5coc(C)n5)c(C)nc4N3)C2)c(F)cn1` (mixture of isomers) [Example 33, (2R)-2-(5-fluoro-2-methoxypyridin-4-yl)-1-[7-methyl-6-(2-methyl-1,3-oxazol-4-yl)-3,4-dihydro-1H-spiro[1,8-naphthyridine-2,3′-pyrrolidin]-1′-yl]propan-1-one], the Kb worked out at 3.2 nM.
The same measure, in the same setting: the value for `COc1cc([C@@H](C)C(=O)N2CC[C@@]3(CCc4ccc(C)nc4N3)C2)nc(C)n1` (single isomer, unassigned) [Example 23, 2-(6-methoxy-2-methylpyrimidin-4-yl)-1-(7-methyl-3,4-dihydro-1H-spiro[1,8-naphthyridine-2,3′-pyrrolidin]-1′-yl)propan-1-one] was 24 nM; that for `COc1ccc([C@@H](C)C(=O)N2CC[C@@]3(CCc4cc(-c5ncccn5)c(C)nc4N3)C2)cc1F` (single isomer, unassigned) [Example 42] was 9.4 nM.
Same read-out and setting: the value for `COc1cc([C@](C)(F)C(=O)N2CC[C@@]3(CCc4cc(-c5ncccn5)c(C)nc4N3)C2)ccn1` (single isomer, unassigned) [Example 46] was 7.2 nM; that for `Cc1nc2c(cc1-c1ncccn1)CC[C@@]1(CCN(C(=O)[C@H](C)c3ccc(F)c(F)c3)C1)N2` (single isomer, unassigned) [Example 50] was 2.9 nM.
Still for that read-out and setting: the value for `Cc1nc2c(cc1-c1nnn(C)n1)CC[C@@]1(CCN(C(=O)Cc3ccc(C(F)(F)F)cc3)C1)N2` (single isomer, unassigned) [Example 65, 1-[7-methyl-6-(2-methyl-2H-tetrazol-5-yl)-3,4-dihydro-1H-spiro[1,8-naphthyridine-2,3′-pyrrolidin]-1′-yl]-2-[4-(trifluoromethyl)phenyl]ethan-1-one] was 10 nM; that for `COc1cc([C@@H](C)C(=O)N2CC[C@@]3(CCc4cc(-c5ncccn5)c(C)nc4N3)C2)cc(OC)n1` (single isomer, unassigned) [Example 83] was 0.54 nM; that for `COc1cc(OC)cc([C@@H](C)C(=O)N2CC[C@@]3(CCc4cc(-c5cnn(C)c5)c(C)nc4N3)C2)c1` (single isomer, unassigned) [Example 90] was 0.4 nM.
Turning to `COc1cc([C@@H](C)C(=O)N2CC[C@@]3(CCc4cc(-c5nc(C(F)(F)F)n(C)n5)c(C)nc4N3)C2)c(F)cn1` (single isomer, unassigned) [Example 92], the Kb stood at 0.16 nM.
On the same count and under the same terms, then `COc1cc([C@@H](C)C(=O)N2CC[C@@]3(CCc4cc(-c5nc(C(F)(F)F)n(C)n5)c(C)nc4N3)C2)c(Cl)cn1` (single isomer, unassigned) [Example 94], with 0.12 nM.
For the compound `COc1cc([C@@H](C)C(=O)N2CC[C@@]3(CCc4ccc(C)nc4N3)C2)c(F)cn1` (single isomer, unassigned) [Example 98], the Kb stood at 19 nM.
On to `COc1cc([C@@H](C)C(=O)N2CC[C@@]3(CCc4ccc(C)nc4N3)C2)c(Cl)cn1` (single isomer, unassigned) [Example 100], for which the Kb was 5.5 nM.
In the case of `Cc1nc2c(cc1-c1cnn(C)c1)CC[C@@]1(CCN(C(=O)Cc3ccc(F)cc3)C1)N2` (stereo in doubt) [Example 89, 2-(4-fluorophenyl)-1-[7-methyl-6-(1-methyl-1H-pyrazol-4-yl)-3,4-dihydro-1H-spiro[1,8-naphthyridine-2,3′-pyrrolidin]-1′-yl]ethan-1-one], the Kb is > 40 nM.
Same read-out and setting: the value for `COc1cc([C@@H](C)C(=O)N2CC[C@@]3(CCc4cc(-c5ncc(C(F)F)cn5)c(C)nc4N3)C2)c(F)cn1` [Example 21, (2R)-1-{(2S)-6-[5-(difluoromethyl)pyrimidin-2-yl]-7-methyl-3,4-dihydro-1H-spiro[1,8-naphthyridine-2,3′-pyrrolidin]-1′-yl}-2-(5-fluoro-2-methoxypyridin-4-yl)propan-1-one] was 20 nM; that for `COc1cc([C@@H](C)C(=O)N2CC[C@@]3(CCc4cc(-c5cn(C(F)(F)F)c(C)n5)c(C)nc4N3)C2)c(F)cn1` [Example 27, (2R)-2-(5-fluoro-2-methoxypyridin-4-yl)-1-{(2S)-7-methyl-6-[2-methyl-1-(trifluoromethyl)-1H-imidazol-4-yl]-3,4-dihydro-1H-spiro[1,8-naphthyridine-2,3′-pyrrolidin]-1′-yl}propan-1-one] was 4.6 nM.
Turning to `COc1cc([C@H](C)C(=O)N2CC[C@@]3(CCc4cc(-c5ncccn5)c(C)nc4N3)C2)c(F)cn1` [Example 28, (2S)-2-(5-fluoro-2-methoxypyridin-4-yl)-1-[(2S)-7-methyl-6-(pyrimidin-2-yl)-3,4-dihydro-1H-spiro[1,8-naphthyridine-2,3′-pyrrolidin]-1′-yl]propan-1-one], the Kb was > 97 nM.
For `COc1cc([C@@H](C)C(=O)N2CC[C@]3(CCc4cc(-c5ncccn5)c(C)nc4N3)C2)c(F)cn1` [Example 29, (2R)-2-(5-fluoro-2-methoxypyridin-4-yl)-1-[(2R)-7-methyl-6-(pyrimidin-2-yl)-3,4-dihydro-1H-spiro[1,8-naphthyridine-2,3′-pyrrolidin]-1′-yl]propan-1-one], the Kb was found to be 12 nM.
Same read-out and setting: the value for `COc1cc([C@H](C)C(=O)N2CC[C@]3(CCc4cc(-c5ncccn5)c(C)nc4N3)C2)c(F)cn1` [Example 30, (2S)-2-(5-fluoro-2-methoxypyridin-4-yl)-1-[(2R)-7-methyl-6-(pyrimidin-2-yl)-3,4-dihydro-1H-spiro[1,8-naphthyridine-2,3′-pyrrolidin]-1′-yl]propan-1-one] was > 54 nM.
